{"source": "patent US9234002B2", "about": "“Small peptide specific for lung cancer and application thereof” (Guangzhou Peptide Medical Technology Co., Ltd., priority 2012, dated 2016)", "key": {"[1]": {"test_system": "NCI-H1975 (adenocarcinoma) and L78 (squamous carcinoma)", "test": "Median survival of lung cancer bearing nude mice after treatment", "assay_type": "in vivo, human", "details": "tumor bearing nude mice, tail vein injection", "method": "Two human lung cancer cell lines comprising NCI-H1975 (adenocarcinoma) and L78 (squamous carcinoma) were maintained in RPMI 1640 (GIBCO, Mississauga, Canada) supplemented with 10% heat-inactivated calf serum (HyClone, Logan, Utah) and L-glutamine (Beyotime, Jiangsu, China) in an incubator at 37° C. with 5% CO2. Cells were harvested with trypsin/EDTA, washed with PAS twice and re-suspended in free serum culture medium at a concentration of 5×10^6 cells/mL. The suspended cells (0.2 mL) were inoculated s.c. into the back of nude mice to establish the lung cancer models, respectively. There are twelve nude mice in each group of cancer model. Tumor growth and general states such as mental, diet and weight were monitored periodically. When tumors reached approximately 1 cm in mean diameter, the tumor bearing mice were used in therapeutic efficacy studies.\nThe tumor size was measured two dimensionally on days 3, 6, 9, 12, 15, 18, 21, 24, 27 and 30 after injection, while mice weight was also determined. The tumor volume was calculated by the formula volume V=(4/3)×π×R1×R2, where R1 is radius 1 and R2 is radius 2 and R1<R2. Growth curves of the tumors were constructed according to these tumor volumes."}, "[2]": {"test": "Toxicity of radiotherapeutic agent in mice bearing lung cancer cells (hematology, serum biochemistry, histopathology)", "assay_type": "in vivo", "description": "After treatment with radiotherapeutic agent for three weeks, the mice were sacrificed and the major tissues or organs such as blood, liver, kidneys, heart, lungs and spleen were removed completely. A routine blood test was performed using an automatic hematology analyzer to measure the following parameters: white blood cell (WBC), red blood cell (RBC) and platelet (PLT) count. Clinical biochemicals parameters measured with an automated biochemical analyzer were aspartate transferase (AST), alanine transferase (ALT), blood urea nitrogen (BUN) and creatinine (CRE). Histopathological and ultrastructural observations were performed on the preserved organs and tissues stated above."}, "[3]": {"details": "mice bearing lung cancer (24 h)"}}}
{"smiles": "[131I-].[Na+]", "note": "[^131I, iodine-131]", "values": [{"measurement": "median survival time", "setting": "[1]", "value": 42, "unit": "days"}, {"measurement": "ALT", "setting": "[2]; [3]", "value": "60.7 ± 7.8", "unit": "U/L"}, {"measurement": "AST", "setting": "[2]; [3]", "value": "171.7 ± 0.8", "unit": "U/L"}, {"measurement": "BUN", "setting": "[2]; [3]", "value": "9.4 ± 1.3", "unit": "mmol/L"}, {"measurement": "CRE", "setting": "[2]; [3]", "value": "42.7 ± 3.8", "unit": "µmol/L"}, {"measurement": "PLT", "setting": "[2]; [3]", "value": "991.2 ± 52.5", "unit": "G/L"}, {"measurement": "RBC", "setting": "[2]; [3]", "value": "7.8 ± 0.2", "unit": "T/L"}, {"measurement": "WBC", "setting": "[2]; [3]", "value": "13.6 ± 0.7", "unit": "G/L"}, {"measurement": "leukocyte count versus control", "setting": "[2]; mice bearing lung cancer cells", "value": "decrease"}]}
